# Patent US20060173015A1, “Cyclohexyldiamines as selective alpha 1a/1d adrenoreceptor antagonists for the treatment of benign prostatic hypertrophy and lower urinary tract symptoms” (priority 2004, published 2006)
# Experiments:
# α1a-AR = target: T1, α1a-AR (Homo sapiens, UniProt P35348); assay: α1-Adrenergic receptor radio-ligand (125I-HEAT) binding assay, α1a subtype; details: for Ki: COS-7 cell membranes, 125I-HEAT
# T1 construct: expressed in transfected cells; host or cells: COS-7
# T1 sequence (P35348 1-466): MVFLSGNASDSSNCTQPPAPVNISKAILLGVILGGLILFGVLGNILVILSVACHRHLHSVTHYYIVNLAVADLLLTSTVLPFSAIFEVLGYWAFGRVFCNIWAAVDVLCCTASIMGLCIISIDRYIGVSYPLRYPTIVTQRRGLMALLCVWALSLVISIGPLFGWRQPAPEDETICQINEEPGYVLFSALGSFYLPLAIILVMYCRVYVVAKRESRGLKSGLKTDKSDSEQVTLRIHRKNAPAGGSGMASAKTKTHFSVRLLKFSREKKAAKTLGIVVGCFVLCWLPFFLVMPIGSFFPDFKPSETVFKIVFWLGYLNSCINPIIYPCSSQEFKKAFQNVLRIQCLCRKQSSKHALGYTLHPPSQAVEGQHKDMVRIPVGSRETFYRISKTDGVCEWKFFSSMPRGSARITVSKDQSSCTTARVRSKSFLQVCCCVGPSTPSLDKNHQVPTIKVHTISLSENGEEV
# Method: (§1) α1-Adrenergic Receptor Binding Assay: Preparation of COS Cell Membranes
# (§2) Membranes were prepared from COS-7 cells that had been transfected with one of the three α1-AR subtypes by the following method. COS cells from ten 100 mm tissue culture plates were scraped into 5 mL TE (50 mM Tris-HCl, 5 mM EDTA, pH 7.4). The cell suspension was disrupted with a Brinkman Polytron, setting 8, for 10 sec. The disrupted cells were centrifuged at 1000×g for 10 min at 4° C. Supernatants were centrifuged at 34,500×g for 20 min at 4° C. The membrane pellets were suspended in 2 mL TNE (50 mM Tris-HCl, 5 mM EDTA, 150 mM NaCl, pH7.4). An aliquot of the membrane suspension was stored at −70° C. until use. The protein concentration was determined using the BioRad DC protein assay kit following membrane solubilization with Triton X-100.
# (§3) Radio-Ligand Binding Assay
# (§4) Triplicate determinations of radio-ligand binding in the presence of increasing: concentrations of testing compound were made. The reagents were added to 96-well polypropylene plate wells using the Biomek 1000 robot (Beckman Instruments). Each assay well contained 140 μl TNE, 25 μL ^125I-HEAT (specific activity 2200 Ci/mmol, Dupont-NEN, 50 pM final), 10 μL testing compound dissolved in DMSO (1 pM to 10 μM in half-log increments, final), and 25 μL appropriate α1-AR membrane subtype suspension in TNE (0.5 ng/μL for the α1a and α1b subtypes and 13 ng/μL for the α1d subtype). The plate was incubated at rt for 1 hr. The contents of the wells were filtered through a GF/C membrane Unifilter plate (Packard Instruments) using the Packard Filtermate cell harvester. The filter plates were dried in a vacuum oven for 30 min at 40° C. 25 μL Microscint 20 liquid scintillation fluid (Packard Instuments) was added to each well. The radioactive content was analyzed in the TopCount microplate scintillation counter (Packard Instruments).
# α1d-AR = target: T2, α1d-AR (Homo sapiens, UniProt P25100); assay: α1-Adrenergic receptor radio-ligand (125I-HEAT) binding assay, α1d subtype; details: for Ki: COS-7 cell membranes, 125I-HEAT, read-out: Receptor Binding, Ki α1d-AR
# T2 construct: expressed in transfected cells; host or cells: COS-7
# T2 sequence (P25100 1-572): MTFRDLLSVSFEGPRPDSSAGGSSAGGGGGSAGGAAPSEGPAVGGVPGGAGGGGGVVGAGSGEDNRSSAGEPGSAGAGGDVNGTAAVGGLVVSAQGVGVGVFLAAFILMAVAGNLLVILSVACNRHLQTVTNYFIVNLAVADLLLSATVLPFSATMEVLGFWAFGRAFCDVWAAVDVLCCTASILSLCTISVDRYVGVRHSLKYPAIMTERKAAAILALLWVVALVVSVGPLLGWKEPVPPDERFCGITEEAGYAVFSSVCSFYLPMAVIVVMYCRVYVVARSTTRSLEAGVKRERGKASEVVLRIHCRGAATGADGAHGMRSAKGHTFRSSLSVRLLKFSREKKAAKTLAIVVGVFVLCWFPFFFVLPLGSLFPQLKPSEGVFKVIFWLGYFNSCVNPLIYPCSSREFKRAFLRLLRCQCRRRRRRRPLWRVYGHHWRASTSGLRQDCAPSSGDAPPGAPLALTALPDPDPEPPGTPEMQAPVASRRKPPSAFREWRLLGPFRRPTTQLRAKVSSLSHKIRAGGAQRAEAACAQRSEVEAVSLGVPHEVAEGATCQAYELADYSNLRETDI
# Method: as §1, §2, §3
# as §4, with “Each assay well contained 140 μl TNE, 25 μL ^125I-HEAT (specific activity 2200 Ci/mmol, Dupont-NEN, 50 pM final), 10 μL testing compound dissolved in DMSO (1 pM to 10 μM in half-log increments, final), and 25 μL appropriate α1-AR membrane subtype suspension in TNE (0.5 ng/μL for the α1a and α1b subtypes and 13 ng/μL for the α1d subtype).” left out
# α1b-AR = target: T3, α1b-AR (Homo sapiens, UniProt P35368); assay: α1-Adrenergic receptor radio-ligand (125I-HEAT) binding assay, α1b subtype; details: for Ki: Receptor Binding, Ki α1b-AR, COS-7 cell membranes, 125I-HEAT
# T3 sequence (P35368 1-520): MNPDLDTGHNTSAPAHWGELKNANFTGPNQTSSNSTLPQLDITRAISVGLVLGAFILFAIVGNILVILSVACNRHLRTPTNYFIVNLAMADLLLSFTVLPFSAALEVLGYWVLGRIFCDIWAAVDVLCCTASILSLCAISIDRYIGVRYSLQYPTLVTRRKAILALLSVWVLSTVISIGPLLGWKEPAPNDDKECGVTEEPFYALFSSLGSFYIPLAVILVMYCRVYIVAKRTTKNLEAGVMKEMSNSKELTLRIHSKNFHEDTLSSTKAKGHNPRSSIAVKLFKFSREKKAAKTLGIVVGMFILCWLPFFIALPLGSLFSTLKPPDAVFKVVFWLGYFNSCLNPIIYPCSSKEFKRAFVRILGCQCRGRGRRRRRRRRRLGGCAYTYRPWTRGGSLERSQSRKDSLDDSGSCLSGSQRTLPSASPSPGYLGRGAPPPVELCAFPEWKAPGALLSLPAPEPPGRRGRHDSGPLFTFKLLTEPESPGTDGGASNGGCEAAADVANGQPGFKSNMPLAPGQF
SMILES,Ki (α1a-AR),Ki (α1d-AR),Ki (α1b-AR),"Kd (α1a-AR; radio-ligand, read-out: Kd used in the Ki calculation, α1a-AR)","Kd (α1d-AR; radio-ligand, read-out: Kd used in the Ki calculation, α1d-AR)","Kd (α1b-AR; read-out: Kd used in the Ki calculation, α1b-AR, radio-ligand)"
"CC(C)Oc1ccccc1N1CCN([C@H]2CC[C@H](NS(=O)(=O)Cc3ccccc3)CC2)CC1 [Cpd 62, N-trans-{4-[4-(2-Isopropoxy-phenyl)-piperazin-1-yl]-cyclohexyl}-C-phenyl-methanesulfonamide]",3.9 nM,12 nM,200 nM,,,
"COc1ccc(Cl)cc1S(=O)(=O)N[C@H]1CC[C@H](N2CCN(c3ccc(F)cc3OC(C)C)CC2)CC1 [Cpd 78, 5-Chloro-N-trans-{4-[4-(4-fluoro-2-isopropoxy-phenyl)-piperazin-1-yl]-cyclohexyl}-2-methoxy-benzenesulfonamide]",340 nM,47 nM,44 nM,,,
CC(C)Oc1ccccc1N1CCN([C@H]2CC[C@H](NS(=O)(=O)c3ccccc3)CC2)CC1 [Cpd 53],2.7 nM,55 nM,487 nM,,,
CC(C)Oc1ccccc1N1CCN([C@H]2CC[C@H](NS(=O)(=O)c3ccccc3[N+](=O)[O-])CC2)CC1 [Cpd 54],1 nM,27 nM,236 nM,,,
"CC(C)Oc1ccccc1N1CCN([C@H]2CC[C@@H](NS(=O)(=O)c3ccc(OC(F)(F)F)cc3)CC2)CC1 [Cpd 17, N-cis-{4-[4-(2-Isopropoxy-phenyl)-piperazin-1-yl]-cyclohexyl}-4-trifluoromethoxy-benzenesulfonamide]",17.4 nM,2.1 nM,174 nM,,,
"COc1ccc(C(F)(F)F)cc1S(=O)(=O)N[C@H]1CC[C@@H](N2CCN(c3ccccc3OC(C)C)CC2)CC1 [Cpd 20, N-cis-{4-[4-(2-Isopropoxy-phenyl)-piperazin-1-yl]-cyclohexyl}-2-methoxy-5-trifluoromethyl-benzenesulfonamide]",35.9 nM,14 nM,473 nM,,,
"COc1ccc(S(=O)(=O)N[C@H]2CC[C@H](N3CCN(c4ccc(F)cc4OC(C)C)CC3)CC2)cc1OC [Cpd 72, N-trans-{4-[4-(4-Fluoro-2-isopropoxy-phenyl)-piperazin-1-yl]-cyclohexyl}-3,4-dimethoxy-benzenesulfonamide]",9 nM,12.2 nM,146 nM,,,
"O=C1c2ccccc2CCC1CNCCc1ccc(O)c(I)c1 (stereo not drawn) [125I-HEAT, reference compound]",,,,81.5 nM,50 nM,79 nM
"CC(C)Oc1ccccc1N1CCN([C@H]2CC[C@@H](NS(=O)(=O)c3ccccc3S(C)(=O)=O)CC2)CC1 [Cpd 5, N-cis-{4-[4-(2-Isopropoxy-phenyl)-piperazin-1-yl]-cyclohexyl}-2-methanesulfonyl-benzenesulfonamide]",12.5 nM,2.8 nM,118 nM,,,
"Cc1c(Cl)cccc1S(=O)(=O)N[C@H]1CC[C@@H](N2CCN(c3ccccc3OC(C)C)CC2)CC1 [Cpd 11, 3-Chloro-N-cis-{4-[4-(2-isopropoxy-phenyl)-piperazin-1-yl]-cyclohexyl}-2-methyl-benzenesulfonamide]",18 nM,1.1 nM,129 nM,,,
"CC(C)Oc1ccccc1N1CCN([C@H]2CC[C@@H](NS(=O)(=O)c3cccc4cccnc34)CC2)CC1 [Cpd 58, Quinoline-8-sulfonic acid N-cis-{4-[4-(2-isopropoxy-phenyl)-piperazin-1-yl]-cyclohexyl}-amide]",8.3 nM,4.3 nM,116 nM,,,
CC(C)Oc1ccccc1N1CCN([C@H]2CC[C@@H](NS(=O)(=O)c3ccccc3)CC2)CC1 [Cpd 25],13.7 nM,5.2 nM,111 nM,,,
"CC(C)Oc1ccccc1N1CCN([C@H]2CC[C@@H](NS(=O)(=O)c3cnc(Cl)c(Br)c3)CC2)CC1 [Cpd 61, 5-Bromo-6-chloro-pyridine-3-sulfonic acid N-cis-{4-[4-(2-isopropoxy-phenyl)-piperazin-1-yl]-cyclohexyl}-amide]",14.4 nM,0.14 nM,125 nM,,,
"CC(C)Oc1ccccc1N1CCN([C@H]2CC[C@H](NS(=O)(=O)c3ccc(C(F)(F)F)cc3)CC2)CC1 [Cpd 37, N-trans-{4-[4-(2-Isopropoxy-phenyl)-piperazin-1-yl]-cyclohexyl}-4-trifluoromethyl-benzenesulfonamide]",67 nM,65 nM,931 nM,,,
"COc1ccncc1S(=O)(=O)N[C@H]1CC[C@H](N2CCN(c3ccccc3OC(C)C)CC2)CC1 [Cpd 65, 4-Methoxy-pyridine-3-sulfonic acid N-trans-{4-[4-(2-isopropoxy-phenyl)-piperazin-1-yl]-cyclohexyl}-amide]",13.4 nM,76 nM,268 nM,,,
"CC(C)Oc1ccccc1N1CCN([C@H]2CC[C@H](NS(=O)(=O)c3cccc(F)c3)CC2)CC1 [Cpd 50, 3-Fluoro-N-trans-{4-[4-(2-isopropoxy-phenyl)-piperazin-1-yl]-cyclohexyl}-benzenesulfonamide]",0.73 nM,24.5 nM,545 nM,,,
"CCN([C@H]1CC[C@@H](N2CCN(c3ccccc3OC(C)C)CC2)CC1)S(=O)(=O)c1ccc(OC)c(OC)c1 [Cpd 67, N-Ethyl-N-cis-{4-[4-(2-isopropoxy-phenyl)-piperazin-1-yl]-cyclohexyl}-3,4-dimethoxy-benzenesulfonamide]",15 nM,22 nM,326 nM,,,
"CC(C)Oc1cc(F)ccc1N1CCN([C@H]2CC[C@H](NS(=O)(=O)c3cc(Cl)ccc3F)CC2)CC1 [Cpd 79, 5-Chloro-2-fluoro-N-trans-{4-[4-(4-fluoro-2-isopropoxy-phenyl)-piperazin-1-yl]-cyclohexyl}-benzenesulfonamide]",5.4 nM,14 nM,107 nM,,,
